The target of the test is Menin-MLL (Homo sapiens (Human), UniProt O00255). Briefly: Determination of binding constants (Ki) to Menin-MLL (HTRF). The settings on record: HTRF, 0.25 nM H-FL-Menin, 3.2 nM FITC-MLL-4-43, 24 hr incubation; for Ki: read-out: Menin-MLL Ki HTRF Assay: Ki. In general terms: TR-FRET usually uses a lanthanide donor and a delayed reading to cut background.

Consider 21 molecules from patent US11919901B2 (Syndax Pharmaceuticals, Inc., priority 2021, dated 2024).

Menin-MLL, sequence (O00255 whole entry): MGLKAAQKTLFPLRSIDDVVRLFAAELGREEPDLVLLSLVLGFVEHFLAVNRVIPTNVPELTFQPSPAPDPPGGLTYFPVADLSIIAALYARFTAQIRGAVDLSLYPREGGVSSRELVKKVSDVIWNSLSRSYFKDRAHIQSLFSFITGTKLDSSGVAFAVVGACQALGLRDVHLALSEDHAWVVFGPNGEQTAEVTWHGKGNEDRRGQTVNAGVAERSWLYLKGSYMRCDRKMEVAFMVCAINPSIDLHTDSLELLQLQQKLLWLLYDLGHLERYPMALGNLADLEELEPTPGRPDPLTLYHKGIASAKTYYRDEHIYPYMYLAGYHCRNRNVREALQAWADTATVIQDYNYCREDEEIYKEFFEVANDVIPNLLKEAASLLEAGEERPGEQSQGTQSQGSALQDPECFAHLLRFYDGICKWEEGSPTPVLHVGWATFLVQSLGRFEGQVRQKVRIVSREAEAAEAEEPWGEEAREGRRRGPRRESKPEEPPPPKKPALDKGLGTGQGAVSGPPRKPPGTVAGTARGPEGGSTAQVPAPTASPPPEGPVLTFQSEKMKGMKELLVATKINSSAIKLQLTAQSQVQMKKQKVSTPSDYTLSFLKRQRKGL

With `COC[C@H]1CCCN1S(=O)(=O)N[C@@H]1CC[C@@H](CN2CCC3(CC2)CN(c2ncncc2Oc2ccc(F)cc2C(=O)N(C(C)C)C(C)C)C3)OC1` [Compound 212, 5-Fluoro-N,N-diisopropyl-2-((4-(7-(((2S,5R)-5-(((R)-2-(methoxymethyl)pyrrolidine)-1-sulfonamido)tetrahydro-2H-pyran-2-yl)methyl)-2,7-diazaspiro[3.5]nonan-2-yl)pyrimidin-5-yl)oxy)benzamide], the inhibition constant Ki (commonly a measure of affinity in units of concentration, obtained from inhibition or displacement) is under 1 nM.

As to `COC[C@@H]1CCCN1S(=O)(=O)N[C@@H]1CC[C@@H](CN2CCC3(CC2)CN(c2ncncc2Oc2ccc(F)cc2C(=O)N(C(C)C)C(C)C)C3)OC1` [Compound 213, 5-Fluoro-N,N-diisopropyl-2-((4-(7-(((2S,5R)-5-(((S)-2-(methoxymethyl)pyrrolidine)-1-sulfonamido)tetrahydro-2H-pyran-2-yl)methyl)-2,7-diazaspiro[3.5]nonan-2-yl)pyrimidin-5-yl)oxy)benzamide], the Ki was under 1 nM.

As for `CCN(C(=O)c1cc(F)ccc1Oc1cncnc1N1CC2(CCN(C[C@@H]3CC[C@@H](NC(=O)Nc4ccccc4)CO3)CC2)C1)C(C)C` [Compound 215, N-Ethyl-5-fluoro-N-isopropyl-2-((4-(7-(((2S,5R)-5-(3-phenylureido)tetrahydro-2H-pyran-2-yl)methyl)-2,7-diazaspiro[3.5]nonan-2-yl)pyrimidin-5-yl)oxy)benzamide], the half-maximal effective concentration (EC50) – broadly, the midpoint of the concentration-response curve – lay within 50 to 100 nM. For the molecule `CCN(C(=O)c1cc(F)ccc1Oc1cnc(C)nc1N1CC2(CCN(C[C@@H]3CC[C@@H](NS(=O)(=O)CC)CO3)CC2)C1)C(C)C` [Compound 216, N-Ethyl-2-((4-(7-(((2S,5R)-5-(ethylsulfonamido)tetrahydro-2H-pyran-2-yl)methyl)-2,7-diazaspiro[3.5]nonan-2-yl)-2-methylpyrimidin-5-yl)oxy)-5-fluoro-N-isopropylbenzamide], the Ki was in the range of 1 to 1.5 nM. Same read-out and setting: then `C=CS(=O)(=O)N[C@@H]1CC[C@@H](CN2CCC3(CC2)CN(c2ncncc2Oc2ccc(F)cc2C(=O)N(CC)C(C)C)C3)OC1` [Compound 219, N-Ethyl-5-fluoro-N-isopropyl-2-((4-(7-(((2S,5R)-5-(vinylsulfonamido)tetrahydro-2H-pyran-2-yl)methyl)-2,7-diazaspiro[3.5]nonan-2-yl)pyrimidin-5-yl)oxy)benzamide], with under 1 nM; and `CCN(C(=O)c1cc(F)ccc1Oc1cncnc1N1CC2(CCN(C[C@@H]3CC[C@@H](NS(=O)(=O)CCN(C)C)CO3)CC2)C1)C(C)C` [Compound 220, 2-((4-(7-(((2S,5R)-5-((2-(Dimethylamino)ethyl)sulfonamido)tetrahydro-2H-pyran-2-yl)methyl)-2,7-diazaspiro[3.5]nonan-2-yl)pyrimidin-5-yl)oxy)-N-ethyl-5-fluoro-N-isopropylbenzamide], with 1 to 1.5 nM. Same read-out and setting: then `CC(C)N(C(=O)c1cc(F)ccc1Oc1cncnc1N1CC2(CCN(C[C@@H]3CC[C@@H](NS(=O)(=O)N4CC5(CCO5)C4)CO3)CC2)C1)C(C)C` [Compound 221, 2-((4-(7-(((2S,5R)-5-(1-Oxa-6-azaspiro[3.3]heptane-6-sulfonamido)tetrahydro-2H-pyran-2-yl)methyl)-2,7-diazaspiro[3.5]nonan-2-yl)pyrimidin-5-yl)oxy)-5-fluoro-N,N-diisopropylbenzamide], with under 1 nM; and `CC(C)N(C(=O)c1cc(F)ccc1Oc1cncnc1N1CC2(CCN(C[C@@H]3CC[C@@H](NS(=O)(=O)N4CC5(COC5)C4)CO3)CC2)C1)C(C)C` [Compound 222, 2-((4-(7-(((2S,5R)-5-(2-Oxa-6-azaspiro[3.3]heptane-6-sulfonamido)tetrahydro-2H-pyran-2-yl)methyl)-2,7-diazaspiro[3.5]nonan-2-yl)pyrimidin-5-yl)oxy)-5-fluoro-N,N-diisopropylbenzamide], with under 1 nM; and `CN=S(=O)(N[C@@H]1CC[C@@H](CN2CCC3(CC2)CN(c2ncncc2Oc2ccc(F)cc2C(=O)N(C(C)C)C(C)C)C3)OC1)c1ccccc1` (stereo partly drawn) [Compound 232, 5-Fluoro-N,N-diisopropyl-2-((4-(7-(((2S,5R)-5-(N′-methylphenylsulfonoamidimidamido)tetrahydro-2H-pyran-2-yl)methyl)-2,7-diazaspiro[3.5]nonan-2-yl)pyrimidin-5-yl)oxy)benzamide], with under 1 nM.

As to `CC(C)N(C(=O)c1cc(F)ccc1Oc1cncnc1N1CC2(CCN(C[C@@H]3CC[C@@H](NS(=N)(=O)C4CC4)CO3)CC2)C1)C(C)C` (stereo partly drawn) [Compound 233, 2-((4-(7-(((2S,5R)-5-(Cyclopropanesulfonoamidimidamido)tetrahydro-2H-pyran-2-yl)methyl)-2,7-diazaspiro[3.5]nonan-2-yl)pyrimidin-5-yl)oxy)-5-fluoro-N,N-diisopropylbenzamide], the inhibition constant Ki is under 1 nM. The same measure, in the same setting: then `Cc1ncc(S(=O)(=O)N[C@@H]2CC[C@@H](CN3CCC4(CC3)CN(c3ncncc3Oc3ccc(F)cc3C(=O)N(C(C)C)C(C)C)C4)OC2)[nH]1` [Compound 234, 5-Fluoro-N,N-diisopropyl-2-((4-(7-(((2S,5R)-5-((2-methyl-1H-imidazole)-5-sulfonamido)tetrahydro-2H-pyran-2-yl)methyl)-2,7-diazaspiro[3.5]nonan-2-yl)pyrimidin-5-yl)oxy)benzamide], with under 1 nM; and `CC(C)N(CC(F)F)C(=O)c1cc(F)ccc1Oc1cncnc1N1CC2(CCN(C[C@@H]3CC[C@@H](NS(=O)(=O)N4CC(OCc5ccccc5)C4)CO3)CC2)C1` [Compound 236, 2-((4-(7-(((2S,5R)-5-((3-(Benzyloxy)azetidine)-1-sulfonamido)tetrahydro-2H-pyran-2-yl)methyl)-2,7-diazaspiro[3.5]nonan-2-yl)pyrimidin-5-yl)oxy)-N-(2,2-difluoroethyl)-5-fluoro-N-isopropylbenzamide], with under 1 nM; and `CC(C)N(CC(F)F)C(=O)c1cc(F)ccc1Oc1cncnc1N1CC2(CCN(C[C@@H]3CC[C@@H](NS(=O)(=O)N4CC(O)C4)CO3)CC2)C1` [Compound 237, N-(2,2-Difluoroethyl)-5-fluoro-2-((4-(7-(((2S,5R)-5-((3-hydroxyazetidine)-1-sulfonamido)tetrahydro-2H-pyran-2-yl)methyl)-2,7-diazaspiro[3.5]nonan-2-yl)pyrimidin-5-yl)oxy)-N-isopropylbenzamide], with under 1 nM. On the same count and under the same terms, with `CC(C)N(CC(F)F)C(=O)c1cc(F)ccc1Oc1cncnc1N1CC2(CCN(C[C@@H]3CC[C@@H](NS(=O)(=O)N(C)CCOCc4ccccc4)CO3)CC2)C1` [Compound 238] the figure was under 1 nM. Consider `CCS(=O)(=O)N[C@@H]1CC[C@@H](CN2CCC3(CC2)CN(c2ncncc2Oc2ccc(F)cc2C(=O)N(CCC(F)F)C(C)C)C3)OC1` [Compound 242, N-(3,3-Difluoropropyl)-2-((4-(7-(((2S,5R)-5-(ethylsulfonamido)tetrahydro-2H-pyran-2-yl)methyl)-2,7-diazaspiro[3.5]nonan-2-yl)pyrimidin-5-yl)oxy)-5-fluoro-N-isopropylbenzamide], for which the concentration giving a half-maximal response (EC50) was under 50 nM and the Ki was under 1 nM. As for `CC(C)N(C(=O)c1cc(F)ccc1Oc1cncnc1N1CC2(CCN(C[C@@H]3CC[C@@H](NS(=O)(=O)C4CC4)CO3)CC2)C1)C1COC1` [Compound 247, 2-((4-(7-(((2S,5R)-5-(Cyclopropanesulfonamido)tetrahydro-2H-pyran-2-yl)methyl)-2,7-diazaspiro[3.5]nonan-2-yl)pyrimidin-5-yl)oxy)-5-fluoro-N-isopropyl-N-(oxetan-3-yl)benzamide], the EC50 was under 50 nM and the inhibition constant Ki is under 1 nM. Take `CCS(=O)(=O)N[C@@H]1CC[C@@H](CN2CCC3(CC2)CN(c2ncncc2Oc2ccc(F)cc2C(=O)N(C(C)C)C2CCOCC2)C3)OC1` [Compound 250, 2-((4-(7-(((2S,5R)-5-(Ethylsulfonamido)tetrahydro-2H-pyran-2-yl)methyl)-2,7-diazaspiro[3.5]nonan-2-yl)pyrimidin-5-yl)oxy)-5-fluoro-N-isopropyl-N-(tetrahydro-2H-pyran-4-yl)benzamide]: the EC50 is under 50 nM. Turning to `CCS(=O)(=O)N[C@@H]1CC[C@@H](CN2CCC3(CC2)CN(c2ncncc2Oc2ccc(F)cc2C(=O)N(C(C)C)[C@@H]2C[C@@H]4CC[C@H]2O4)C3)OC1` [Compound 251, N-((lR,2R,4S)-7-Oxabicyclo[2.2.1]heptan-2-yl)-2-((4-(7-(((2S,5R)-5-(ethylsulfonamido)tetrahydro-2H-pyran-2-yl)methyl)-2,7-diazaspiro[3.5]nonan-2-yl)pyrimidin-5-yl)oxy)-5-fluoro-N-isopropylbenzamide], the Ki was under 1 nM. Same read-out and setting: with `CCS(=O)(=O)N[C@@H]1CC[C@@H](CN2CCC3(CC2)CN(c2ncncc2Oc2ccc(F)cc2C(=O)N(C(C)C)C2CC4(COC4)C2)C3)OC1` [Compound 252, 2-((4-(7-(((2S,5R)-5-(Ethylsulfonamido)tetrahydro-2H-pyran-2-yl)methyl)-2,7-diazaspiro[3.5]nonan-2-yl)pyrimidin-5-yl)oxy)-5-fluoro-N-isopropyl-N-(2-oxaspiro[3.3]heptan-6-yl)benzamide] the figure was under 1 nM; with `CCS(=O)(=O)N[C@@H]1CC[C@@H](CN2CCC3(CC2)CN(c2ncncc2Oc2ccc(F)cc2C(=O)N(C(C)C)[C@H]2[C@@H]4COC[C@@H]42)C3)OC1` [Compound 253, N-((1R,5S,6r)-3-c)-2-((4-(7-(((2S,5R)-5-(ethylsulfonamido)tetrahydro-2H-pyran-2-yl)methyl)-2,7-diazaspiro[3.5]nonan-2-yl)pyrimidin-5-yl)oxy)-5-fluoro-N-isopropylbenzamide], under 1 nM. `COCCN(C(=O)c1cc(F)ccc1Oc1cncnc1N1CC2(CCN(C[C@@H]3CC[C@@H](NS(=O)(=O)c4ccccc4)CO3)CC2)C1)C(C)C` [Compound 254, 5-Fluoro-N-isopropyl-N-(2-methoxyethyl)-2-((4-(7-(((2S,5R)-5-(phenylsulfonamido)tetrahydro-2H-pyran-2-yl)methyl)-2,7-diazaspiro[3.5]nonan-2-yl)pyrimidin-5-yl)oxy)benzamide]: the EC50 is under 50 nM and the inhibition constant Ki was under 1 nM.
